Assay results: ChEMBL document CHEMBL1201862, “PubChem BioAssay data set” (2004)
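1) Cells in 96-well plates. 2) Compound, 48 h, 5 concentrations. 3) Linear interpolation between surrounding doses. 4) Unreached endpoint = highest concentration. GI50 marks 50% less growth.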 The source made the active and inactive calls. Cut-off read from the data, not from the text of the source: active = GI50 up to about 1.1 µM and inactive = higher.

Key:
Assay in all cases: DTP human tumour cell line panel, 48 h
HOP-18 = system: HOP-18
XF498 = system: XF498
SNB-78 = system: SNB-78
M19-MEL = system: M19-MEL
DLD-1 = system: DLD-1
LXFL 529 = system: LXFL 529
DMS-114 = system: DMS-114
MDA-N = system: MDA-N

In the case of `COc1cc(-c2cc(O)c3cc4c(cc3n2)OCO4)cc(OC)c1OC`, the GI50 (HOP-18) is reported as 72.8 µM (inactive), the GI50 (XF498) is reported as 29.8 µM (inactive) and the GI50 (SNB-78) is reported as > 100 µM (inactive). The GI50 (M19-MEL) was > 100 µM (inactive), the GI50 (DLD-1) was > 100 µM (inactive) and the GI50 (LXFL 529) was > 100 µM (inactive).

`COc1ccc(C(c2ccc(C(C)C)cc(=O)c2O)c2ccc3cccnc3c2O)cc1` (stereo not given) was tested, and the GI50 (DMS-114) was 0.173 µM (active), the GI50 (XF498) was 2.17 µM (inactive) and the GI50 (SNB-78) was 1.05 µM (active). For the same molecule, the GI50 (M19-MEL) was 0.484 µM (active), the GI50 (DLD-1) was 0.45 µM (active) and the GI50 (LXFL 529) was 0.506 µM (active).

In the case of `Cc1ccnn1CCc1ccc(Cl)cc1Cl`, the GI50 (MDA-N) is reported as 44.3 µM (inactive).

`O=C1c2ccccc2C(O)(C(=O)O)C1(O)CC=C(Cl)Cl` (stereo not given) was tested, and the GI50 (HOP-18) was > 125 µM (inactive), the GI50 (DMS-114) was > 125 µM (inactive) and the GI50 (XF498) was > 125 µM (inactive). For the same molecule, the GI50 (SNB-78) was > 125 µM (inactive), the GI50 (M19-MEL) was > 125 µM (inactive) and the GI50 (DLD-1) was > 125 µM (inactive).

In the case of `O=C(O)C(Cc1cccs1)NC(=O)C(F)(F)F` (stereo not given), the GI50 (HOP-18) is reported as > 100 µM (inactive), the GI50 (DMS-114) is reported as > 100 µM (inactive) and the GI50 (M19-MEL) is reported as > 100 µM (inactive). The GI50 (DLD-1) was > 100 µM (inactive).

With `CCCCCC(/C=C/c1ncccc1OCCCCCC(=O)O)=N\NC1=NCCN1` the GI50 (DMS-114) was 45.2 µM (inactive), the GI50 (XF498) was 27.3 µM (inactive) and the GI50 (M19-MEL) was > 100 µM (inactive). The GI50 (LXFL 529) was 47.2 µM (inactive).

In the case of `CCOC(=O)c1c(-c2cccc(Cl)c2)c(C(=O)OC)c(C)c2sc(C=O)nc12`, the GI50 (MDA-N) is reported as 19.9 µM (inactive).

With `CN(C)N1C(=O)S/C(=C\c2ccc([N+](=O)[O-])cc2)C1=O` the GI50 (MDA-N) was > 100 µM (inactive).

In the case of `CCOC(=O)/C(SC#N)=C(/N)N1CCCC1`, the GI50 (MDA-N) is reported as > 100 µM (inactive).

With `N#Cc1c(-c2ccc([N+](=O)[O-])cc2)c(C#N)c(=O)n(NS(=O)(=O)c2ccccc2)c1O` the GI50 (MDA-N) was > 100 µM (inactive).

`Clc1ccccc1C(n1ncc2ccccc21)n1ncc2ccccc21` was tested, and the GI50 (DMS-114) was 31.3 µM (inactive), the GI50 (XF498) was 14.5 µM (inactive) and the GI50 (SNB-78) was 71.1 µM (inactive). For the same molecule, the GI50 (M19-MEL) was 23.1 µM (inactive), the GI50 (DLD-1) was 40.5 µM (inactive) and the GI50 (LXFL 529) was 37 µM (inactive).

For `CCC(=O)OCN(C)c1nc(N(C)COC(=O)CC)nc(N(C)COC(=O)CC)n1`, the GI50 (MDA-N) was 33.3 µM (inactive).

In the case of `CCCNC(C#N)c1ccc(C(C#N)NCCC)cc1` (stereo not given), the GI50 (MDA-N) is reported as 36.3 µM (inactive).

`COc1cc(C2C3=C(N=C4SC(C(C)=O)=C(C)N42)c2ccccc2CC3)cc(OC)c1OC` (stereo not given) was tested, and the GI50 (MDA-N) was 28.7 µM (inactive).

In the case of `CN(C)/N=N/c1ccc(NC=O)cc1`, the GI50 (MDA-N) is reported as > 100 µM (inactive).

`O=C1Nc2ccccc2C(=O)/C1=C/NC(=S)NCCc1ccccc1` was tested, and the GI50 (MDA-N) was > 100 µM (inactive).

For `CCOC(=O)CNC(=O)C(CSCc1ccc(Br)cc1)NC(=O)CCC(N)C(=O)OCC` (stereo not given), the GI50 (MDA-N) was > 50 µM (inactive).

`CCC1(O)CC(O)c2c(O)c3c(c(O)c2C1C(=O)OC)C(=O)c1cccc(O)c1C3=O` (stereo not given) was tested, and the GI50 (MDA-N) was 5.36 µM (inactive).

In the case of `Nc1nc(Cl)cc(NCC2(CCO)CCC2)n1`, the GI50 (MDA-N) is reported as > 100 µM (inactive).

For `COc1cc(OC2OC(CO)C(O)C(O)C2O)c2c(O)c3c(=O)cc(C)oc3cc2c1` (stereo not given), the GI50 (MDA-N) was > 10 µM (inactive).

In the case of `Cc1c(S(=O)(=O)c2ccccc2)c(N)n(CCN(C)C)c1C`, the GI50 (MDA-N) is reported as > 100 µM (inactive).

With `CC(=O)OCc1ccc(-c2nc(C#N)c(N)o2)o1` the GI50 (MDA-N) was > 10 µM (inactive).

`Clc1ccc(OCc2nnc3sc(-c4ccc(-c5ccc(Cl)cc5Cl)o4)nn23)c(Cl)c1` was tested, and the GI50 (MDA-N) was 24.2 µM (inactive).

For `Cc1cc(N(CCC#N)CCC#N)ccc1/C=C(\NC(=O)/C=C/c1ccccc1)C(=O)Nc1ccccc1Cl`, the GI50 (DMS-114) was > 100 µM (inactive), the GI50 (SNB-78) was > 100 µM (inactive) and the GI50 (M19-MEL) was > 100 µM (inactive). The GI50 (DLD-1) was > 100 µM (inactive) and the GI50 (LXFL 529) was > 100 µM (inactive).

For `Oc1ccc(C(=C(Br)c2ccccc2)c2ccc(O)cc2)cc1`, the GI50 (MDA-N) was 1.83 µM (inactive).

For `O=C1C(N2CCNCC2)=C(Cl)C(=O)c2ncccc21`, the GI50 (MDA-N) was 4.47 µM (inactive).

In the case of `CN1C2CCC1/C(=C/c1cccc3c1OCO3)C(=O)/C2=C\c1cccc2c1OCO2`, the GI50 (DMS-114) is reported as > 100 µM (inactive), the GI50 (XF498) is reported as 25.3 µM (inactive) and the GI50 (M19-MEL) is reported as > 100 µM (inactive). For the same molecule, the GI50 (DLD-1) was > 100 µM (inactive) and the GI50 (LXFL 529) was > 100 µM (inactive).

In the case of `CS(=O)(=O)OCCCNCCCOS(C)(=O)=O`, the GI50 (HOP-18) is reported as 1420 µM (inactive), the GI50 (DMS-114) is reported as 849 µM (inactive) and the GI50 (XF498) is reported as 938 µM (inactive). For the same molecule, the GI50 (SNB-78) was 2100 µM (inactive), the GI50 (M19-MEL) was 1580 µM (inactive) and the GI50 (DLD-1) was 2810 µM (inactive). For the same molecule, the GI50 (MDA-N) was 2350 µM (inactive).

`COC(=O)C1=C(C)N2CCOC2CC1c1ccccc1` (stereo not given) was tested, and the GI50 (DMS-114) was > 100 µM (inactive), the GI50 (M19-MEL) was > 100 µM (inactive) and the GI50 (DLD-1) was 78.3 µM (inactive). For the same molecule, the GI50 (LXFL 529) was > 100 µM (inactive).

`O=C1CC2(CCC(O)(c3cccc4ccccc34)C(C(=O)c3cccc4ccccc34)C2)C(=O)c2ccccc2N1` (stereo not given) was tested, and the GI50 (MDA-N) was 18.4 µM (inactive).

In the case of `OC[P+](CO)(CO)C12CC3CC(CC(C3)C1)C2`, the GI50 (MDA-N) is reported as > 100 µM (inactive).

For `CC(=O)Nc1ccc(C(=O)NN2C(=O)C(Cl)C2c2cccc([N+](=O)[O-])c2)cc1` (stereo not given), the GI50 (M19-MEL) was > 100 µM (inactive), the GI50 (DLD-1) was > 100 µM (inactive) and the GI50 (LXFL 529) was > 100 µM (inactive).

With `COc1cc(C(=O)C2CC3(CCC2(O)c2cc(OC)c(OC)c(OC)c2)CC(=O)Nc2ccccc2C3=O)cc(OC)c1OC` (stereo not given) the GI50 (MDA-N) was > 100 µM (inactive).

`O=C1C(=C2CCCC2)CCC1CN1CCCCC1` (stereo not given) was tested, and the GI50 (HOP-18) was 15.3 µM (inactive), the GI50 (DMS-114) was 17.5 µM (inactive) and the GI50 (SNB-78) was 19.6 µM (inactive). For the same molecule, the GI50 (M19-MEL) was 32.4 µM (inactive) and the GI50 (LXFL 529) was 13.2 µM (inactive).

`CC(C)=CCc1c(O)c(CC2=C(O)C(CC=C(C)C)(C(=O)C(C)C)C(O)=C(C)C2=O)c(O)c(C(=O)C(C)C)c1O` (stereo not given) was tested, and the GI50 (MDA-N) was 14.3 µM (inactive).

With `CCOC(=O)c1sc2nc(SC)nc3c2c1NC(=O)CN3c1cccc(F)c1` the GI50 (MDA-N) was 29.8 µM (inactive).
